Measurements reported in patent US11707462B2, “Checkpoint kinase 1 (CHK1) inhibitors and uses thereof” (Boundless Bio, Inc., priority 2021, dated 2023).

Key:
[1] = biological target: T1, Full-length human Chk1 protein (Homo sapiens, UniProt O14757); test: Kinase HTRF biochemical assay (HTRF KinEASE), Chk1 enzyme activity; conditions: full-length human Chk1, ATP 1 mM, 60 minutes at room temperature
T1 construct: purchased Carna Biosciences, Inc. 02-117
T1 sequence (O14757 1-476): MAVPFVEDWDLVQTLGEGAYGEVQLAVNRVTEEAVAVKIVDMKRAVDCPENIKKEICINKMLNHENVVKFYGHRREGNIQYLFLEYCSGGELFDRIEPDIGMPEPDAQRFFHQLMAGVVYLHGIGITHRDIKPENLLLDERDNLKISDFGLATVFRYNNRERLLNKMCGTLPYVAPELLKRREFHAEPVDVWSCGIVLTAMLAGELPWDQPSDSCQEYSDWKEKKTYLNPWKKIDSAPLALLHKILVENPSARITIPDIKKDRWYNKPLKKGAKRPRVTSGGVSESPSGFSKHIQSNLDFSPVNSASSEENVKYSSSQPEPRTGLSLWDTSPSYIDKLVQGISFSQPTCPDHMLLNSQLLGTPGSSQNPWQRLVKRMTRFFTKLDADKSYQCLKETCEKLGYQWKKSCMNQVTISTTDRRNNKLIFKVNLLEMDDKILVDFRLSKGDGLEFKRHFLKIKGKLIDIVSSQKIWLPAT
In short: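 Full-length human Chk1 (0.012 ng/μL) in buffer with 5 mM MgCl2 and 1 mM DTT, preincubated with compound 10 min at room temperature; reaction with 120 nM biotinylated STK substrate 1 and 1 mM ATP for 60 min at room temperature. HTRF detection via cryptate antibody/streptavidin-XL665; IC50 from 10-point duplicate curves.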

[2] = test system: p-CHK1 (Ser345); test: AlphaLISA SureFire Ultra p-CHK1 (Ser345) cellular assay in HT29 cells; type: cell-based; conditions: Homo sapiens, HT-29, 16 h at 37° C.
In short: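 HT29 cells treated with compounds over a 10-point, 3-fold dilution series for 16 h at 37° C., then lysed; p-CHK1 (Ser345) in lysates measured by AlphaLISA SureFire Ultra (acceptor and donor steps 1 h each at room temperature). IC50 from dose-response curve fits.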

Compound | IC50 [1] | IC50 [2]
Cc1ccc(O[C@@H]2CC[C@@H](N)C2)c(-c2cc(Nc3cnc(C#N)cn3)n[nH]2)c1F [Example 3-26, 5-((5-(6-(((1R,3R)-3-aminocyclopentyl)oxy)-2-fluoro-3-methylphenyl)-1H-pyrazol-3-yl)amino)pyrazine-2-carbonitrile] | ≤ 10 nM | ≤ 50 nM
CN[C@@H]1CC[C@@H](Oc2ccc(F)c(F)c2-c2cc(Nc3cnc(C#N)cn3)n[nH]2)C1 [Example 3-1, 5-((5-(2,3-difluoro-6-(((1R,3R)-3-(methylamino)cyclopentyl)oxy)phenyl)-1H-pyrazol-3-yl)amino)pyrazine-2-carbonitrile] | 10 to 100 nM | 100 to 500 nM
N#Cc1cnc(Nc2cc(-c3ncccc3O[C@@H]3CC[C@@H](N)C3)[nH]n2)cn1 (stereo in doubt) [Example 1-59, 5-((5-(3-(((1R,3R)-3-aminocyclopentyl)oxy)pyridin-2-yl)-1H-pyrazol-3-yl)amino)pyrazine-2-carbonitrile] | 100 to 500 nM | > 1000 nM
CN[C@@H]1CC[C@@H](Oc2ccc(C)nc2-c2cc(Nc3cnc(C#N)cn3)n[nH]2)C1 [Example 3-45, 5-((5-(6-methyl-3-(((1R,3R)-3-(methylamino)cyclopentyl)oxy)pyridin-2-yl)-1H-pyrazol-3-yl)amino)pyrazine-2-carbonitrile] | ≤ 10 nM | ≤ 50 nM
N#Cc1cnc(Nc2cc(-c3c(F)cccc3O[C@H]3CCCC[C@H](N)C3)[nH]n2)cn1 [Example 3-38, 5-((5-(2-(((1S,3S)-3-aminocycloheptyl)oxy)-6-fluorophenyl)-1H-pyrazol-3-yl)amino)pyrazine-2-carbonitrile] | ≤ 10 nM | 50 to 100 nM
CC(C)c1ccc(O[C@@H]2CC[C@H](N)C2)c(-c2cc(Nc3cnc(C#N)cn3)n[nH]2)n1 [Example 3-46, 5-((5-(3-(((1R,3S)-3-aminocyclopentyl)oxy)-6-isopropylpyridin-2-yl)-1H-pyrazol-3-yl)amino)pyrazine-2-carbonitrile] | ≤ 10 nM | 50 to 100 nM
N#Cc1cnc(Nc2cc(-c3ncccc3O[C@H]3C[C@H](N)C3)[nH]n2)cn1 [Example 1-55, 5-((5-(3-((1r,3r)-3-aminocyclobutoxy)pyridin-2-yl)-1H-pyrazol-3-yl)amino)pyrazine-2-carbonitrile] | 10 to 100 nM | 500 to 1000 nM
COc1ccc(F)c(O[C@@H]2CC[C@H](N)C2)c1-c1cc(Nc2cnc(C#N)cn2)n[nH]1 [Example 1-27, 5-((5-(2-(((1R,3S)-3-aminocyclopentyl)oxy)-3-fluoro-6-methoxyphenyl)-1H-pyrazol-3-yl)amino)pyrazine-2-carbonitrile] | 10 to 100 nM | 100 to 500 nM
N#Cc1cnc(Nc2cc(-c3c(F)cccc3O[C@H]3CC[C@H](N)CC3)[nH]n2)cn1 [Example 1-19, 5-((5-(2-(((1r,4r)-4-aminocyclohexyl)oxy)-6-fluorophenyl)-1H-pyrazol-3-yl)amino)pyrazine-2-carbonitrile] | 10 to 100 nM | 100 to 500 nM
N#Cc1cnc(Nc2cc(-c3c(O[C@@H]4CC[C@H](N)C4)ccc(Cl)c3F)[nH]n2)cn1 [Example 3-19, 5-((5-(6-(((1R,3S)-3-aminocyclopentyl)oxy)-3-chloro-2-fluorophenyl)-1H-pyrazol-3-yl)amino)pyrazine-2-carbonitrile] | 10 to 100 nM | > 1000 nM
CN[C@@H]1CC[C@@H](Oc2cccc(F)c2-c2cc(Nc3cnc(C#N)cn3)n[nH]2)C1 [Example 1-43, 5-((5-(2-fluoro-6-(((1R,3R)-3-(methylamino)cyclopentyl)oxy)phenyl)-1H-pyrazol-3-yl)amino)pyrazine-2-carbonitrile] | 10 to 100 nM | ≤ 50 nM
N#Cc1cnc(Nc2cc(-c3ncccc3O[C@@H]3CC[C@H](N)C3)[nH]n2)cn1 [Example 1-63, 5-((5-(3-(((1R,3S)-3-aminocyclopentyl)oxy)pyridin-2-yl)-1H-pyrazol-3-yl)amino)pyrazine-2-carbonitrile] | 10 to 100 nM | 100 to 500 nM
